Source: the supplement of paper PMC10307832

Legend:
Test in all cases: relative viability (nuclei count vs DMSO), 5 days (fraction); higher = more cells survive
[1] = compound: N[C@@H]1CCCN(c2c(/C=C3\SC(=O)NC3=O)cccc2-c2ccccc2)C1 [AZD1208] + Cc1nc(Nc2ncc(C(=O)Nc3c(C)cccc3Cl)s2)cc(N2CCN(CCO)CC2)n1 [Dasatinib] (partner 0.075 µM)
Procedure, shortened: (§1)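 The day after seeding in 1536-well plates, lung cancer cell lines were treated by pin tool with a single drug, or with a fixed anchor-drug dose together with five library-drug doses (not always all listed) in √10 steps. After 5 days, a combined fix-and-stain solution (final 0.05% Triton X-100, 1% formaldehyde, 1 ug/ml Hoechst) was added. Nuclei counted on 4× images gave relative viability as treated counts over vehicle counts, reported as the median of duplicate plates.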

[2] = compound: N[C@@H]1CCCN(c2c(/C=C3\SC(=O)NC3=O)cccc2-c2ccccc2)C1 [AZD1208] + COc1cc2c(Oc3ccc(NC(=O)C4(C(=O)Nc5ccc(F)cc5)CC4)cc3F)ccnc2cc1OCCCN1CCOCC1 [Foretinib] (partner 0.25 µM)
Procedure, shortened: as §1

[3] = compound: N[C@@H]1CCCN(c2c(/C=C3\SC(=O)NC3=O)cccc2-c2ccccc2)C1 [AZD1208] + Nc1nc2[nH]cc(CCc3ccc(C(=O)N[C@@H](CCC(=O)O)C(=O)O)cc3)c2c(=O)[nH]1 [Pemetrexed] (partner 0.2 µM)
Procedure, shortened: as §1

[4] = compound: CN1CCN(CC1)C2=CC(=C(C=C2)NC3=NC(=C(S3)C(=O)C4=C(C=CC=C4Cl)Cl)N)OC [XMD14-99] + CC(=O)c1c(C)c2cnc(Nc3ccc(N4CCNCC4)cn3)nc2n(C2CCCC2)c1=O [Palbociclib] (partner 0.5 µM)
Procedure, shortened: as §1

For UMC-11, the relative viability ([1]; first compound 0.08 µM) was 0.462, the relative viability ([1]; first compound 0.253 µM) was 0.469 and the relative viability ([1]; first compound 0.8 µM) was 0.446. It also gave a relative viability ([1]; first compound 2.53 µM) of 0.483, a relative viability ([1]; first compound 8 µM) of 0.41 and a relative viability ([2]; first compound 0.08 µM) of 0.884. It also gave a relative viability ([2]; first compound 0.253 µM) of 0.877, a relative viability ([2]; first compound 0.8 µM) of 0.77 and a relative viability ([2]; first compound 2.53 µM) of 0.741. The relative viability ([2]; first compound 8 µM) was 0.458, the relative viability ([3]; first compound 0.08 µM) was 0.689 and the relative viability ([3]; first compound 0.253 µM) was 0.718. It also gave a relative viability ([3]; first compound 0.8 µM) of 0.631, a relative viability ([3]; first compound 2.53 µM) of 0.594 and a relative viability ([3]; first compound 8 µM) of 0.48. It also gave a relative viability ([4]; first compound 0.08 µM) of 0.34, a relative viability ([4]; first compound 0.8 µM) of 0.383 and a relative viability ([4]; first compound 2.53 µM) of 0.346. For the same cell line, the relative viability ([4]; first compound 8 µM) was 0.292.
